Assay results from US11209437B2, “Fluorescent probe and preparation method and use thereof” (Fluorescence Diagnosis (shanghai) Biotech Company Ltd., priority 2016, dated 2021).
One block for each compound: values may come before it.

What was measured:
[1] = biological target: T1, SNAP protein tags (Homo sapiens, UniProt P16455, A127T/A154D/C150Q/C62A/E30R/G131K/G132T/G153L/K125A/K32I/L33F/M134L/N157G/Q115S/Q116H/R128A/R135S/S151G/S152D/S159E); assay: Fluorescence activation of probe after incubation with corresponding protein tag (SNAP); type: biochemical; settings: probe 5 μM, protein tag 10 μM, 37° C., 1 hr
T1 sequence (P16455 1-182 E30R/K32I/L33F/C62A/Q115S/Q116H/K125A/A127T/R128A/G131K/G132T/M134L/R135S/C150Q/S151G/S152D/G153L/A154D/N157G/S159E): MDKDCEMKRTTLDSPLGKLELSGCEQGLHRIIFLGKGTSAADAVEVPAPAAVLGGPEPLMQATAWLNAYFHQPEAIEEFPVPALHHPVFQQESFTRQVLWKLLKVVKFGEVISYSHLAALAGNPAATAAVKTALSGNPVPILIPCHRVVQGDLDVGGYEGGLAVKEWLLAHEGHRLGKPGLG
Protocol: (§1) Probes were mixed with corresponding protein tags to obtain mixed samples, in which the final probe concentration was 5 μM, and the final protein tag concentration was 10 μM. The mixed samples were incubated 37° C. for 1 hr, fluorescence spectrophotometer was used to detect the change in fluorescence intensity, and the results are shown in Table 1.
(§2) From the quantum yield of probe bound to protein tag, after reacting with the protein tags, the probes of the Examples could be detected to have significant signal enhancement in corresponding excitation transmission channels, the fluorescence activation multiple reached several hundreds to a thousand or more, and the brightness was high, which illustrates that after the probes of the Examples are bound to the protein tags, fluorescence of the probes can be activated, and the probes have good fluorescent molecular switching properties. In contrast, though the fluorescence of the reference probes could also be activated, the quantum yield of activated fluorescence was very low, and the brightness was very poor. In particular, in view of comparison results between probe 98 and reference probe 99, probe 101 and reference probe 102, probe 103 and reference probe 104, probe 105 and reference probe 106, probe 107 and reference probe 108, probe 109 and reference probe 110, probe 111 and reference probe 112, probe 114 and reference probe 115, probe 117 and reference probe 118, probe 120 and reference probe 121 in Table 1, for the same fluorescent dye, when the ligand is connected to the electron donor part of the fluorescent dye, the fluorescence activation brightness of the probe is much higher than the reference probe in which ligand is connected to the electron acceptor part of the fluorescent dye.

[2] = Viscosity responsiveness: fluorescence emission spectra of probes in glycerol and methanol; type: physicochemical; settings: for Emission wavelength: excited at maximum excitation wavelength of each probe; for Fluorescence ratio in glycerol to methanol: probe 1×10^−5 M
Protocol: Probes 1 to 98, 101, 103, 105, 107, 109, 111, 114, 117, and 120, and the reference probes 99, 100, 102, 104, 106, 108, 110, 112, 113, 115, 116, 118, 119, 121, BG-CCVJ and BG-Gly-CCVJ were dissolved in dimethyl sulfoxide, respectively, to prepare mother liquors having a concentration of 1×10^−2 M, to each of which glycerol and methanol were added and uniformly mixed, to prepare solutions finally having a concentration of 1×10^−5 M. Depending on the probes, fluorescence emission spectra of the probes were detected successively with the maximum excitation wavelength of each probe under the same conditions, and the results were shown in Table 1.
That is, these probes are sensitive to viscosity changes and have viscosity responsiveness.

[3] = Fluorescence of free probe prior to binding to a protein tag; type: physicochemical
Protocol: as §1, §2

Fluorescence activation multiple [1]: 590 | Quantum yield of probe bound to protein tag [1]: 0.48 | Emission wavelength [2]: 555 nm | Fluorescence ratio in glycerol to methanol [2]: 1681 | Quantum yield of free probe [3]: <0.001
Compound: CN(CCOC(=O)NCc1ccc(COc2cc(Cl)nc(N)n2)cc1)c1cc2sc(/C=C(\C#N)C(=O)OC(C)(C)C)cc2s1 [probe 24]

Fluorescence activation multiple [1]: 670 | Quantum yield of probe bound to protein tag [1]: 0.36 | Emission wavelength [2]: 590 nm | Fluorescence ratio in glycerol to methanol [2]: 1621 | Quantum yield of free probe [3]: <0.001
Compound: CN(CCOC(=O)NCc1ccc(COc2cc(Cl)nc(N)n2)cc1)c1cc2sc(/C=C(\C#N)c3nc4ccccc4o3)cc2s1 [probe 25]

Fluorescence activation multiple [1]: 910 | Quantum yield of probe bound to protein tag [1]: 0.42 | Emission wavelength [2]: 610 nm | Fluorescence ratio in glycerol to methanol [2]: 1123 | Quantum yield of free probe [3]: <0.001
Compound: CN(CCOC(=O)NCc1ccc(COc2cc(Cl)nc(N)n2)cc1)c1cc2sc(/C=C(\C#N)c3nc4ccccc4s3)cc2s1 [probe 26]

Fluorescence activation multiple [1]: 957 | Quantum yield of probe bound to protein tag [1]: 0.55 | Emission wavelength [2]: 570 nm | Fluorescence ratio in glycerol to methanol [2]: 1781 | Quantum yield of free probe [3]: <0.001
Compound: CN(CCOC(=O)NCc1ccc(COc2cc(Cl)nc(N)n2)cc1)c1ccc2cc(/C=C(\C#N)C(=O)OC(C)(C)C)sc2c1 [probe 33]

Fluorescence activation multiple [1]: 488 | Quantum yield of probe bound to protein tag [1]: 0.50 | Emission wavelength [2]: 570 nm | Fluorescence ratio in glycerol to methanol [2]: 1258 | Quantum yield of free probe [3]: 0.001
Compound: CC(C)(C)OC(=O)/C(C#N)=C/c1cc2ccc(N(CCC#N)CCOC(=O)NCc3ccc(COc4nc(N)nc5[nH]cnc45)cc3)cc2s1 [probe 36]

Fluorescence activation multiple [1]: 469 | Quantum yield of probe bound to protein tag [1]: 0.56 | Emission wavelength [2]: 570 nm | Fluorescence ratio in glycerol to methanol [2]: 1135 | Quantum yield of free probe [3]: 0.0012
Compound: CC(C)(C)OC(=O)/C(C#N)=C/c1cc2ccc(N(CCO)CCOC(=O)NCc3ccc(COc4nc(N)nc5[nH]cnc45)cc3)cc2s1 [probe 37]

Fluorescence activation multiple [1]: 421 | Quantum yield of probe bound to protein tag [1]: 0.41 | Emission wavelength [2]: 570 nm | Fluorescence ratio in glycerol to methanol [2]: 759 | Quantum yield of free probe [3]: 0.001
Compound: CN(CCOC(=O)NCc1ccc(COc2nc(N)nc3[nH]cnc23)cc1)c1ccc2cc(/C=C(\C#N)C(=O)OC(C)(C)C)sc2c1 [probe 40]

Fluorescence activation multiple [1]: 982 | Quantum yield of probe bound to protein tag [1]: 0.37 | Emission wavelength [2]: 602 nm | Fluorescence ratio in glycerol to methanol [2]: 1028 | Quantum yield of free probe [3]: <0.001
Compound: CN(CCOC(=O)NCc1ccc(COc2nc(N)nc3[nH]cnc23)cc1)c1ccc2nc(/C=C(\C#N)C(=O)OC(C)(C)C)oc2c1 [probe 43]

Fluorescence activation multiple [1]: 1586 | Quantum yield of probe bound to protein tag [1]: 0.37 | Emission wavelength [2]: 603 nm | Fluorescence ratio in glycerol to methanol [2]: 1459 | Quantum yield of free probe [3]: <0.001
Compound: CN(CCOC(=O)NCc1ccc(COc2cc(Cl)nc(N)n2)cc1)c1ccc2nc(/C=C(\C#N)C(=O)OC(C)(C)C)oc2c1 [probe 44]

The next lines start with the compound.

Compound: CN1C(=O)/C(=C/c2ccc(N(C)CCOC(=O)NCc3ccc(COc4cc(Cl)nc(N)n4)cc3)cc2)N=C1/C=C/c1ccccc1 [probe 16]
Fluorescence activation multiple [1]: 359 | Quantum yield of probe bound to protein tag [1]: 0.21 | Emission wavelength [2]: 580 nm | Fluorescence ratio in glycerol to methanol [2]: 311 | Quantum yield of free probe [3]: <0.001

Compound: CN(CCOC(=O)NCc1ccc(COc2nc(N)nc3[nH]cnc23)cc1)c1ccc(C2=C(C#N)C(=C(C#N)C#N)OC2(C)C)cc1 [probe 18]
Fluorescence activation multiple [1]: 265 | Quantum yield of probe bound to protein tag [1]: 0.45 | Emission wavelength [2]: 535 nm | Fluorescence ratio in glycerol to methanol [2]: 301 | Quantum yield of free probe [3]: 0.0017

Compound: CN(CCOC(=O)NCc1ccc(COc2cc(Cl)nc(N)n2)cc1)c1ccc(C2=C(C#N)C(=C(C#N)C#N)OC2(C)C)cc1 [probe 19]
Fluorescence activation multiple [1]: 361 | Quantum yield of probe bound to protein tag [1]: 0.45 | Emission wavelength [2]: 535 nm | Fluorescence ratio in glycerol to methanol [2]: 299 | Quantum yield of free probe [3]: 0.0012

Compound: CN(CCOC(=O)NCc1ccc(COc2nc(N)nc3[nH]cnc23)cc1)c1cc2sc(/C=C(\C#N)c3nc4ccccc4o3)cc2s1 [probe 22]
Fluorescence activation multiple [1]: 610 | Quantum yield of probe bound to protein tag [1]: 0.36 | Emission wavelength [2]: 590 nm | Fluorescence ratio in glycerol to methanol [2]: 1821 | Quantum yield of free probe [3]: <0.001

Compound: CN(CCOC(=O)NCc1ccc(COc2nc(N)nc3[nH]cnc23)cc1)c1cc2sc(/C=C(\C#N)c3nc4ccccc4s3)cc2s1 [probe 23]
Fluorescence activation multiple [1]: 712 | Quantum yield of probe bound to protein tag [1]: 0.42 | Emission wavelength [2]: 610 nm | Fluorescence ratio in glycerol to methanol [2]: 1235 | Quantum yield of free probe [3]: <0.001

Compound: CN(CCOC(=O)NCc1ccc(COc2nc(N)nc3[nH]cnc23)cc1)c1ccc2cc(/C=C(\C#N)c3nc4ccccc4o3)sc2c1 [probe 31]
Fluorescence activation multiple [1]: 421 | Quantum yield of probe bound to protein tag [1]: 0.41 | Emission wavelength [2]: 607 nm | Fluorescence ratio in glycerol to methanol [2]: 1135 | Quantum yield of free probe [3]: <0.001

Compound: CN(CCOC(=O)NCc1ccc(COc2nc(N)nc3[nH]cnc23)cc1)c1ccc2cc(/C=C(\C#N)c3nc4ccccc4s3)sc2c1 [probe 32]
Fluorescence activation multiple [1]: 638 | Quantum yield of probe bound to protein tag [1]: 0.46 | Emission wavelength [2]: 609 nm | Fluorescence ratio in glycerol to methanol [2]: 997 | Quantum yield of free probe [3]: <0.001

Compound: CC(C)(C)OC(=O)/C(C#N)=C/c1cc2ccc(N(CCOC(=O)NCCCS(=O)(=O)O)CCOC(=O)NCc3ccc(COc4nc(N)nc5[nH]cnc45)cc3)cc2s1 [probe 39]
Fluorescence activation multiple [1]: 335 | Quantum yield of probe bound to protein tag [1]: 0.55 | Emission wavelength [2]: 570 nm | Fluorescence ratio in glycerol to methanol [2]: 892 | Quantum yield of free probe [3]: 0.0016

Compound: CC1=N/C(=C/c2cc3ccc(N(C)CCOC(=O)NCc4ccc(COc5nc(N)nc6[nH]cnc56)cc4)cc3s2)C(=O)N1C [probe 41]
Fluorescence activation multiple [1]: 212 | Quantum yield of probe bound to protein tag [1]: 0.31 | Emission wavelength [2]: 575 nm | Fluorescence ratio in glycerol to methanol [2]: 101 | Quantum yield of free probe [3]: 0.0015

Compound: CN1C(=O)/C(=C\c2cc3ccc(N(C)CCOC(=O)NCc4ccc(COc5nc(N)nc6[nH]cnc56)cc4)cc3s2)N=C1c1ccccc1 [probe 42]
Fluorescence activation multiple [1]: 298 | Quantum yield of probe bound to protein tag [1]: 0.38 | Emission wavelength [2]: 600 nm | Fluorescence ratio in glycerol to methanol [2]: 178 | Quantum yield of free probe [3]: 0.0013

Compound: CN(CCOC(=O)NCc1ccc(COc2nc(N)nc3[nH]cnc23)cc1)c1ccc2nc(/C=C(\C#N)c3nc4ccccc4o3)oc2c1 [probe 46]
Fluorescence activation multiple [1]: 563 | Quantum yield of probe bound to protein tag [1]: 0.21 | Emission wavelength [2]: 620 nm | Fluorescence ratio in glycerol to methanol [2]: 682 | Quantum yield of free probe [3]: <0.001
